In ChEMBL document CHEMBL5291721, “A preclinical secondary pharmacology resource illuminates target-adverse drug reaction associations of marketed drugs” (Nat Commun, 2023):

Legend:
[1] = biological target: T1, Peroxisome proliferator-activated receptor gamma (Homo sapiens, UniProt P37231); type: functional
T1 sequence (P37231 whole entry): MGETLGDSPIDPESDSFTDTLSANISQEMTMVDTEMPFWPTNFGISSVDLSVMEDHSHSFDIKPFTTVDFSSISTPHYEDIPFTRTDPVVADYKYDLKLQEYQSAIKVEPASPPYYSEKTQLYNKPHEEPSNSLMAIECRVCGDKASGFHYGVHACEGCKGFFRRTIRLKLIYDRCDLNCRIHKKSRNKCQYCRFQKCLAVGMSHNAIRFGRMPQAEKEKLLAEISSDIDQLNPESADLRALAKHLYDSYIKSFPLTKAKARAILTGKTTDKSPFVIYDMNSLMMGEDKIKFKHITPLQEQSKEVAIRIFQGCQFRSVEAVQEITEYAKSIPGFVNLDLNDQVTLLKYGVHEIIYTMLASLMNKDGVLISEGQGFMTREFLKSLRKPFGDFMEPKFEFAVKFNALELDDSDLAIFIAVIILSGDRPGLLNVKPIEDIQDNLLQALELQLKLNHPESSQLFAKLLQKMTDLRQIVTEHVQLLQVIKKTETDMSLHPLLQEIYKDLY

[2] = biological target: T2, Gastric inhibitory polypeptide receptor (Homo sapiens, UniProt P48546)
T2 sequence (P48546 whole entry): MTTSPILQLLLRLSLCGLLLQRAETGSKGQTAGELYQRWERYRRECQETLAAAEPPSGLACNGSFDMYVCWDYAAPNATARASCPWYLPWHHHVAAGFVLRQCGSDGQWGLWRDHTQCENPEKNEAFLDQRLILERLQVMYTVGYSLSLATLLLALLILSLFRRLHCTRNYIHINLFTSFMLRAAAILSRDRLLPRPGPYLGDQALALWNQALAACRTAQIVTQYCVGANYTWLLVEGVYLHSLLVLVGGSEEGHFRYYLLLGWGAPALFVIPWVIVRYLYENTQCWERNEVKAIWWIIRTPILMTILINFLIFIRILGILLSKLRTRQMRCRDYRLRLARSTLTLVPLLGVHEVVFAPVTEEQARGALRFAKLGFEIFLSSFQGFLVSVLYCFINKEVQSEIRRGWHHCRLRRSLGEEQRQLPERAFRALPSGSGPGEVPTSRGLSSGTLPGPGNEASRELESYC

[3] = biological target: Neurotensin receptor type 1 (Homo sapiens, UniProt P30989)
[4] = biological target: Beta-3 adrenergic receptor (Homo sapiens, UniProt P13945)
Progesterone receptor = biological target: T3, Progesterone receptor (Homo sapiens, UniProt P06401)
T3 sequence (P06401 whole entry): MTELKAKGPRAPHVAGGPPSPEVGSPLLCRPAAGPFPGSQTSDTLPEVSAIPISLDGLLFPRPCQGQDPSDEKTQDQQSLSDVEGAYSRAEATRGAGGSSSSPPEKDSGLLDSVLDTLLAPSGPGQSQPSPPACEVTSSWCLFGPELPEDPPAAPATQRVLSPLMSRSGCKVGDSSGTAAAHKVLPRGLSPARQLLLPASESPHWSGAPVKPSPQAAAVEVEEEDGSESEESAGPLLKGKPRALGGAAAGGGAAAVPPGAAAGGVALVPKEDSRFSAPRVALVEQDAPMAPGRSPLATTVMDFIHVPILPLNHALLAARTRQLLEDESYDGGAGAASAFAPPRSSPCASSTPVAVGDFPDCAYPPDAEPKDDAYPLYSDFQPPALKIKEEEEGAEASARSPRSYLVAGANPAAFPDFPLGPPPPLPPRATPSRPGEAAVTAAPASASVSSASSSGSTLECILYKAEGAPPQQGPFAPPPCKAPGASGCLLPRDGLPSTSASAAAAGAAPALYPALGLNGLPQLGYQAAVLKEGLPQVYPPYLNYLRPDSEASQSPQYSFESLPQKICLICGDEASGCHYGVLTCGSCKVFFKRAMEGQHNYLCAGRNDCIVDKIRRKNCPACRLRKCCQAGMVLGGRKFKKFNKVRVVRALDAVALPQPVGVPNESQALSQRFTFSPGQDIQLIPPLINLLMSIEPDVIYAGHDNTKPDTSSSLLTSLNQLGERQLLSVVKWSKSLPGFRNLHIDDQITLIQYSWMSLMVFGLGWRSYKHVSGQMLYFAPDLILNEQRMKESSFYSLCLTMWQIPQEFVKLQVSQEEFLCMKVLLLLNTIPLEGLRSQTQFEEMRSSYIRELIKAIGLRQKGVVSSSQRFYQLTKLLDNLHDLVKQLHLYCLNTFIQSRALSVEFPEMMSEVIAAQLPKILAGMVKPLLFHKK

D(4) dopamine receptor = biological target: T4, D(4) dopamine receptor (Homo sapiens, UniProt P21917)
T4 sequence (P21917 whole entry): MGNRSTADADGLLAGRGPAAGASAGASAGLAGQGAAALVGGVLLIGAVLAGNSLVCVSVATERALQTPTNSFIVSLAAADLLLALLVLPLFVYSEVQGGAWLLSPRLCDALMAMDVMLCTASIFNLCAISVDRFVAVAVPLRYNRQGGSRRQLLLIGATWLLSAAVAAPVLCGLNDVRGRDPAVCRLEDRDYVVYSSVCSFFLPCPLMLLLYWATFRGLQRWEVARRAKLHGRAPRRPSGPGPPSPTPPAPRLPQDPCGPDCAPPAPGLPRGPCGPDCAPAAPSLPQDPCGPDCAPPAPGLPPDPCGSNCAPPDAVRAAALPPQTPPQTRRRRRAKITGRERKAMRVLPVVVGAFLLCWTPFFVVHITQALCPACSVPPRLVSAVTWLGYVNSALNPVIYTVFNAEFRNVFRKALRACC

[5] = biological target: T5, Muscarinic acetylcholine receptor M1 (Homo sapiens, UniProt P11229); type: functional, cell-based
T5 sequence (P11229 whole entry): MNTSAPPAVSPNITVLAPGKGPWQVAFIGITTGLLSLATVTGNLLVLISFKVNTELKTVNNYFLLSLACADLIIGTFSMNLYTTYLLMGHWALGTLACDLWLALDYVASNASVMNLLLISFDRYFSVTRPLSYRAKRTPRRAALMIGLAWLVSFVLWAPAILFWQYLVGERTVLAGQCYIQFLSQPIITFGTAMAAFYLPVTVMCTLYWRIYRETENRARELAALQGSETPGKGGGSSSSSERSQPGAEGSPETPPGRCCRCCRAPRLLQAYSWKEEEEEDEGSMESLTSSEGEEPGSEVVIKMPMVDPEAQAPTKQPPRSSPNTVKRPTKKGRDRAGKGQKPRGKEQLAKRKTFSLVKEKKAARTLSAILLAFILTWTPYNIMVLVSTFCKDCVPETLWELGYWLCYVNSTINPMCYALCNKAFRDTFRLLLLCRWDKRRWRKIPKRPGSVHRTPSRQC

Histamine H2 receptor = Histamine H2 receptor (Homo sapiens, UniProt P25021)
Substance-P receptor = Substance-P receptor (Homo sapiens, UniProt P25103)
Also: assay procedure not described here.

Chain of Neurotensin receptor type 1 (P30989 whole entry): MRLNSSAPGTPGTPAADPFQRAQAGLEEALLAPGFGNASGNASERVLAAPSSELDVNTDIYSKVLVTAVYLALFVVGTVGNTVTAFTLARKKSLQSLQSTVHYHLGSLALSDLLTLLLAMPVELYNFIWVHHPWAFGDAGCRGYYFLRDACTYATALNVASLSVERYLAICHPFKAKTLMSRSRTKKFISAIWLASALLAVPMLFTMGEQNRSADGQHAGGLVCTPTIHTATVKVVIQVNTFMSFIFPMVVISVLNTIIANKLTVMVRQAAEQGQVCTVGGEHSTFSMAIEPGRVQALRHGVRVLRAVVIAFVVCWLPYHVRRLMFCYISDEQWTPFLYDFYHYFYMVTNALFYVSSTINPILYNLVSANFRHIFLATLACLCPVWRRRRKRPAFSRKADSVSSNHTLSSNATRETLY
Chain of Beta-3 adrenergic receptor (P13945 whole entry): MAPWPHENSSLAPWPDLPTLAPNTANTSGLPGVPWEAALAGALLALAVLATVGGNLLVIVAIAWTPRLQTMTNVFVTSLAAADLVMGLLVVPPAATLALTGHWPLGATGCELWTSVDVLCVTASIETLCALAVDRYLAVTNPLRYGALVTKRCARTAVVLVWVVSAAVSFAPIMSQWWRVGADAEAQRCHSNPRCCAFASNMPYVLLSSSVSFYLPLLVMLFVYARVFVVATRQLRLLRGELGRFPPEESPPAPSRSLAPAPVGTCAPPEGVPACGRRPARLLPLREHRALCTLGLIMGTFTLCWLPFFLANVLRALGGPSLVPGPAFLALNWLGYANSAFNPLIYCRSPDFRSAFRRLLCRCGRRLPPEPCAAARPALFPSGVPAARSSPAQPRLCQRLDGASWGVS
Chain of Histamine H2 receptor (P25021 whole entry): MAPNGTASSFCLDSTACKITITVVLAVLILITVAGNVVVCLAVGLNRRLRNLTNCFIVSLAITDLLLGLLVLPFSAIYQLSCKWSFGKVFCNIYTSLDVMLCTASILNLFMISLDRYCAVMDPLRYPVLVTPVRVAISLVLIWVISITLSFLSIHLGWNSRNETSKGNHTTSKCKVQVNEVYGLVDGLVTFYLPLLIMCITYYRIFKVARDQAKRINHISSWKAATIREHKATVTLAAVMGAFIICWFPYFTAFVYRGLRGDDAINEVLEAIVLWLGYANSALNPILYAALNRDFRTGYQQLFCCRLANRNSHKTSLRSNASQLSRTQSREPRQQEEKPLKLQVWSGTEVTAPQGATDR
Chain of Substance-P receptor (P25103 whole entry): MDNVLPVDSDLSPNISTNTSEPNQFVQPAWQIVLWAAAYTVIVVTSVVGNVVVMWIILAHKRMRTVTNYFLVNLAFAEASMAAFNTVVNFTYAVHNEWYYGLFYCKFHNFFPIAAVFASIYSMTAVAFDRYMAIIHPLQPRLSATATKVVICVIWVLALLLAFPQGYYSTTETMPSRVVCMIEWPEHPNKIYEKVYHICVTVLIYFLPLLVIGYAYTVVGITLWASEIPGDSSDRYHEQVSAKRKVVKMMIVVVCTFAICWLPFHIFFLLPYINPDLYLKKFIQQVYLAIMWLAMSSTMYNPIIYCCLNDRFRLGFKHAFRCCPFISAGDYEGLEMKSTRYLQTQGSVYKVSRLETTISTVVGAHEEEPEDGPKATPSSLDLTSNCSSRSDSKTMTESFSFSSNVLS

Work on `CO/N=C(\C(=O)N[C@@H]1C(=O)N2C(C(=O)[O-])=C(C[N+]3(C)CCCC3)CS[C@H]12)c1csc(N)n1` yielded an AC50 [1] of 200 µM.
Work on `CC(=O)c1ccc2c(c1)N(CCCN1CCN(CCO)CC1)c1ccccc1S2` [ACETOPHENAZINE] yielded an AC50 [1] greater than 30 µM.
With `CC(N)Cc1ccccc1` (stereo not drawn) [AMPHETAMINE] the AC50 [2] was greater than 30 µM, the AC50 [3] was greater than 30 µM and the AC50 [4] was greater than 30 µM. It also gave an AC50 [1] greater than 30 µM and an AC50 (Progesterone receptor) greater than 30 µM.
`CN1CCCC(n2nc(Cc3ccc(Cl)cc3)c3ccccc3c2=O)CC1` (stereo not drawn) [AZELASTINE] was tested, and the AC50 [1] was greater than 30 µM.
For `N[C@@H](C(=O)N[C@@H]1C(=O)N2C(C(=O)O)=C(Cl)CS[C@H]12)c1ccccc1` [CEFACLOR ANHYDROUS], the AC50 [1] was greater than 30 µM.
Molecule `COc1cc2c(cc1OC)C(=O)C(CC1CCN(Cc3ccccc3)CC1)C2` (stereo not drawn) [DONEPEZIL] has an AC50 [2] greater than 30 µM, an AC50 (D(4) dopamine receptor) of 0.824 µM and an AC50 [5] greater than 30 µM. The AC50 [3] was greater than 30 µM, the AC50 [4] was greater than 30 µM and the AC50 (Histamine H2 receptor) was greater than 10 µM. It also gave an AC50 (Progesterone receptor) greater than 30 µM and an AC50 (Substance-P receptor) greater than 10 µM.
`COC(=O)[C@@H]1CC2=CC(=O)CC[C@]2(C)[C@@]23O[C@@H]2C[C@@]2(C)[C@@H](CC[C@@]24CCC(=O)O4)[C@H]13` [EPLERENONE] was tested, and the AC50 [2] was greater than 30 µM, the AC50 [3] was greater than 30 µM and the AC50 [4] was greater than 30 µM. It also gave an AC50 (Histamine H2 receptor) greater than 10 µM and an AC50 [1] greater than 30 µM.
With `CC(C)Cc1ccc(CC(=O)O)cc1` [IBUFENAC] the AC50 [1] was greater than 30 µM.
`CC(C)NNC(=O)c1ccncc1` [IPRONIAZID] gave an AC50 [1] greater than 30 µM.
With `Cc1cccc(C)c1OCC(C)N` (stereo not drawn) [MEXILETINE] the AC50 [1] was greater than 30 µM.
In the case of `NC(=O)c1ncn([C@@H]2O[C@H](CO)[C@@H](O)[C@H]2O)c1O` [MIZORIBINE], the AC50 [1] is reported as greater than 30 µM.
`OCCN1CCN(CCCN2c3ccccc3C=Cc3ccccc32)CC1` [OPIPRAMOL] gave an AC50 [5] greater than 30 µM and an AC50 [1] greater than 30 µM.
Work on `CC(C(=O)O)c1ccc(N2CC=CC2)c(Cl)c1` (stereo not drawn) [PIRPROFEN] yielded an AC50 [2] greater than 30 µM, an AC50 (D(4) dopamine receptor) greater than 10 µM and an AC50 [5] greater than 30 µM. It also gave an AC50 [3] greater than 30 µM, an AC50 [4] greater than 30 µM and an AC50 (Histamine H2 receptor) greater than 10 µM. It also gave an AC50 (Progesterone receptor) greater than 30 µM and an AC50 (Substance-P receptor) greater than 10 µM.
For `CC[C@H](C)C(=O)O[C@H]1C[C@H](O)C=C2C=C[C@H](C)[C@H](CC[C@@H](O)C[C@@H](O)CC(=O)O)[C@H]21` [PRAVASTATIN], the AC50 [1] was greater than 30 µM.
`OCc1cc([C@@H](O)CNCCCCCCOCCOCc2c(Cl)cccc2Cl)ccc1O` [VILANTEROL] gave an AC50 [1] greater than 30 µM.
